Key:
[1] = molecular target: T1, human dipeptide transporter, hPept1 (Homo sapiens, UniProt P46059); settings: for HeLa/hPEPT1 uptake: pH 6
T1 sequence (P46059 1-708): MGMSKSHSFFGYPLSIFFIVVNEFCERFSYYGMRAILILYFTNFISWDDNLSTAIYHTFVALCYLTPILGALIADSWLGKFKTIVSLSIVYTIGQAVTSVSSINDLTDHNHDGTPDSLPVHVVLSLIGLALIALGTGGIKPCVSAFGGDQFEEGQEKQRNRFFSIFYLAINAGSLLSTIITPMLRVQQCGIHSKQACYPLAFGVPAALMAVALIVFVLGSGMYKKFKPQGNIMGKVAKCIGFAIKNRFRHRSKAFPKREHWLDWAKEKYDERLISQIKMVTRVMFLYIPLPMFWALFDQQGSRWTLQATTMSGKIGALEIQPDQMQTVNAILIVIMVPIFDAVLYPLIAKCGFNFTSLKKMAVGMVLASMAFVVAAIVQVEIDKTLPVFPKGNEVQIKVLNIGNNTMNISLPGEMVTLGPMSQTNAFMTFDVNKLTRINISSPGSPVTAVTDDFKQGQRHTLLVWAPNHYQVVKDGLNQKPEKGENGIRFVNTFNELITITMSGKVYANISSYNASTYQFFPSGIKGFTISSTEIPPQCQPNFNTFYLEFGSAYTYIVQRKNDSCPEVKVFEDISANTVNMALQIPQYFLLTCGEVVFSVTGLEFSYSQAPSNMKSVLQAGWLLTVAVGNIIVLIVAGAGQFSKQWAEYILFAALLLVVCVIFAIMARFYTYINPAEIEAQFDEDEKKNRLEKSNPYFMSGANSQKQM

KB cell = KB cell cytotoxicity; settings: read-out: KB cell cytotoxicity (IC50)
vaccinia virus = assay: microbe, parasite or virus in culture; type: cell-based; settings: for IC50: HFF cells, 3 days, read-out: Vaccinia Plaque Reduction (IC50)
Caco-2 monolayers = assay: Caco-2 monolayer transport and stability; type: in vitro ADME
Description: The transepithelial transport of Ara A, 5′-O-L-valyl Ara A, 5′-O-L-isoleucyl Ara A is tested in Caco-2 monolayers grown in transwell filters following standard procedures as described in detail in Landowski, C. P. et al., Pharm Res, 2005. 22(9): p. 1510-8. In these experiments, transport studies are performed 21 days post-seeding. The assay is initiated by adding drug transport solution (0.2 mM drug in MES buffer, pH 6.0 containing 5 mM D-glucose, 5 mM MES, 1 mM CaCl2, 1 mM MgCl2, 150 mM NaCl, 3 mM KCl, 1 mM NaH2PO4) to the apical chamber of the Caco-2 insert. Two hundred microliter aliquots are withdrawn from the basolateral chamber at predetermined intervals and replaced with fresh HEPES pH 7.4 buffer. The epithelial integrity of representative cell monolayers is assessed by monitoring transepithelial resistance. In these assays, the stability of the drug in both chambers of the insert is also monitored. […] Importantly, the prodrugs are stable, showing minimal metabolism to Ara A and Ara-H over a 2-hour time frame.

[2] = Caco-2 cell homogenates, n = 3
[3] = Intestinal absorption after direct duodenal injection in anesthetized rats, plasma by LC/MS/MS; settings: for AUC0-4 hr of Prodrug: rat plasma, duodenal injection of the named prodrug; for plasma Ara A levels after dosing (in words) / prodrug absorption / prodrug concentrations in systemic plasma (in words): rat, duodenal injection
Description: The systemic plasma profiles of the prodrug, Ara A, and its main metabolite, Ara H are then monitored by removing plasma from a jugular vein cannula over a 4 hour period and assaying by LC/MS/MS assay.
Animals were dosed with Ara A at a level of 1.5 mg/rat via direct duodenal injection into anesthetized rats (n=2 per compound). Plasma samples were taken from the jugular vein at 0, 1, 2, and 4 hours from the jugular vein and were assayed for Ara A (▪), and Ara H (♦) by LC/MS/MS.
Animals were dosed with 5′-O-L isoleucyl Ara A prodrug at a level of 2.7 mg/rat via direct duodenal injection into anesthetized rats (n=3 per compound). Plasma samples were taken from the jugular vein at 0, 0.5, 1, 2, and 4 hours from the jugular vein and were assayed for prodrug (□), Ara A (▪), and Ara H (♦) by LC/MS/MS.
(§1) FIG. 6 is a graph showing mean plasma profiles of Ara A, Ara H, and 5′-O-D Isoleucyl Ara A after administration of 5′-O-D Isoleucyl Ara A into the duodenum of a rat. Animals were dosed with 5′-O-D Isoleucyl Ara A prodrug at a level of 2.7 mg/rat via direct duodenal injection into anesthetized rats (n=2). Plasma samples were taken from the jugular vein at 0, 0.5, 1, 2, and 4 hours from the jugular vein and were assayed for prodrug (□), Ara A (▪), and Ara H (♦) by LC/MS/MS.
as §1, with “7” for “6”, “5′-O-L Valyl” for “5′-O-D Isoleucyl”, “3” for “2.7”
as §1, with “FIG. 8” for “FIG. 6”, “5′-O-D Valyl” for “5′-O-D Isoleucyl”, “of 3.0” for “of 2.7”, “rats (n=3).” for “rats (n=2).”, “and ara” for “and Ara”
as §1, with “9” for “6”, “5′-O-Glycyl” for “5′-O-D Isoleucyl”, “3.0” for “2.7”

[4] = molecular target: T2, biphenyl hydrolase-like enzyme (BPHL) (Homo sapiens, UniProt Q86WA6); type: biochemical
T2 sequence (Q86WA6 38-291): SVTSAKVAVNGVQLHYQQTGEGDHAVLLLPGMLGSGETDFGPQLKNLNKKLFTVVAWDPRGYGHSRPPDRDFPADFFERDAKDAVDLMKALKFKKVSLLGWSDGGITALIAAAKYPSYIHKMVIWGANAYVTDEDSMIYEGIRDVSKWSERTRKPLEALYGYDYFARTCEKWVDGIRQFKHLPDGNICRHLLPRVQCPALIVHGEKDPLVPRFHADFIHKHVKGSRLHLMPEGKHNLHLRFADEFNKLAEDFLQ

HPEPT1 [5] = molecular target: T3, HPEPT1 (Homo sapiens, UniProt P46059); settings: for Uptake (hPepT1): HeLa cells overexpressing HPEPT1, 50 micromolar, pH 6.0, 45 minutes; for hPepT1/Control: ratio of uptake in hPepT1 cells versus control cells
T3 sequence (P46059 1-708): T1 sequence (P46059 1-708)

HPEPT1 [6] = molecular target: T3, HPEPT1; assay: Inhibition of radiolabelled Gly-Sar uptake in DC5 cells overexpressing HPEPT1; type: cell-based; design: expressed in transfected cells; host or cells: HeLa cells overexpressing hPEPT1 (called 'HPEPT1 infected cells'); settings: inhibition of Gly-Sar uptake, DC5 cells overexpressing HPEPT1, 10 min, 37° C.; read-out: DC5 IC50
Description: Amino acid prodrugs are tested for their interaction with the dipeptide transporter, HPEPT1, using tissue culture cells that are engineered to overexpress HPEPT1. In this example, the cells that overexpress HPEPT1, termed DC5, are a human meduloblastoma cell line that is stably transfected with a eukaryotic expression vector encoding HPEPT1. […] DC5 cells are plated at a density of 12,000 cells/well in 96-well tissue culture plates and allowed to grow for 2 days. The cells are washed once with 200 microliters of uptake buffer and aspirated. The plates are cooled to 4° C. and 25 ul of uptake buffer containing 125 nanomoles Gly-Sar (at a specific activity of 1 microcurie/micromole) is added. The uptake buffer also contains the prodrugs to be tested at concentrations ranging from 10 micromolar to 20 millimolar. The assay is initiated by placing the plate in a shaking water bath at 37° C. and is terminated after 10 min by rapid washing with multiple changes of 4° C. phosphate buffered saline (PBS). The radioactive Gly-Sar peptide that is transported by the hpept1 is extracted from the cell layer with 200 ul of a one to one mixture of methanol and water and is counted in 4 ml of CytoScint ES™ scintillation cocktail (ICN). The data are plotted as % Gly-Sar uptake of control (no competitive substrate) versus the competitive substrate concentration. […] Typically, values that are below 10 mM indicate that the drug interacts with transporter.

With `CC(C)[C@H](N)C(=O)OC[C@H]1O[C@@H](n2cnc3c(N)ncnc32)[C@@H](O)[C@@H]1O` [5′-O-L-valyl Ara A] the hPepT1/Control [1] was 20.7, the HeLa/hPEPT1 uptake [1] was 80.3 ± 1.1 and the IC50 (KB cell) was 65 µM. The IC50 (vaccinia virus) was 12 µM, the Permeability (Caco-2 monolayers; apical to basolateral, 0.2 mM drug, apical pH 6.0, n = 3) was 3.86 ± 0.03 ×10^−6, cm/s and the “Stability (% remaining) Apical chamber (donor)” value (Caco-2 monolayers; percent prodrug remaining in donor solution at 120 minutes) was 82.1%. For the same compound, the “Stability (% remaining) Basolateral chamber (receiver)” value (Caco-2 monolayers; percent prodrug remaining in receiver solution at 120 minutes) was 62.0%, the “t1/2 Caco-2” value [2] was 11.1 ± 0.4 min and the “AUC0-4 hr of Prodrug” value [3] was 195 ± 25 ng·h/mL. The “plasma Ara A levels after dosing (in words)” value (“plasma Ara A levels” below) [3] was “Increased levels of plasma Ara A”.
In the case of `CC(C)[C@H](N)C(=O)O[C@H]1C[C@H](n2cc(F)c(=O)[nH]c2=O)O[C@@H]1CO` [3′-O-valyl-Floxuridine], the “% of Control (VACV)” value [4] is reported as 3.3%, the “Uptake (hPepT1)” value (HPEPT1 [5]) is reported as 1.35 ± 0.13 nmole/mg/45 min and the hPepT1/Control (HPEPT1 [5]) is reported as 1.03. For the same compound, the IC50 (HPEPT1 [6]) was 980 µM.
For `CC[C@@H](C)[C@@H](N)C(=O)OC[C@H]1O[C@@H](n2cnc3c(N)ncnc32)[C@@H](O)[C@@H]1O` [5′-O-D-isoleucyl Ara A], the IC50 (KB cell) was > 100 µM, the IC50 (vaccinia virus) was 3 µM and the “plasma Ara A levels” value [3] was “increased levels of plasma Ara A”.
For `N[C@@H](Cc1ccccc1)C(=O)OC[C@H]1O[C@@H](n2cc(F)c(=O)[nH]c2=O)C[C@@H]1OC(=O)[C@@H](N)Cc1ccccc1` [3′,5′-di-O-phenylalanyl-Floxuridine], the “% of Control (VACV)” value [4] was 8.9%, the “Uptake (hPepT1)” value (HPEPT1 [5]) was 2.96 ± 0.13 nmole/mg/45 min and the hPepT1/Control (HPEPT1 [5]) was 9.53. It also gave an IC50 (HPEPT1 [6]) of 2780 µM.
With `CC(C)[C@@H](N)C(=O)OC[C@H]1O[C@@H](n2cnc3c(N)ncnc32)[C@@H](O)[C@@H]1O` [5′-O-D-valyl Ara A] the IC50 (KB cell) was > 100 µM, the IC50 (vaccinia virus) was 3.5 µM and the “AUC0-4 hr of Prodrug” value [3] was 637 ± 74 ng·h/mL. The “plasma Ara A levels” value [3] was “Increased levels of plasma Ara A” and the “prodrug absorption / prodrug concentrations in systemic plasma (in words)” value [3] was “extended and enhanced concentrations of the prodrug in systemic plasma”.
`Nc1ncnc2c1ncn2[C@@H]1O[C@H](COC(=O)[C@@H](N)CC(=O)O)[C@@H](O)[C@@H]1O` [5′-O-L-aspartyl Ara A] showed a hPepT1/Control [1] of 1.27, a HeLa/hPEPT1 uptake [1] of 5.0 ± 0.2 and an IC50 (KB cell) of 60 µM. For the same compound, the IC50 (vaccinia virus) was 7 µM.
With `OC[C@H]1O[C@@H](n2cnc3c2N=CNC[C@H]3O)C[C@@H]1O` [2′-deoxycoformycin, reference compound] the “effect on virus replication” value (vaccinia virus; 2′-deoxycoformycin alone at 1 micromolar) was “no effect on virus replication”.
For `NCC(=O)OC[C@H]1O[C@@H](n2cnc3c(N)ncnc32)[C@@H](O)[C@@H]1O` [5′-O-glycyl Ara A], the IC50 (KB cell) was > 100 µM, the IC50 (vaccinia virus) was 15 µM and the “plasma Ara A levels” value [3] was “relatively low plasma levels”. The “prodrug absorption / prodrug concentrations in systemic plasma (in words)” value [3] was “limited intestinal absorption of the prodrug”.
With `CC(C)[C@H](N)C(=O)OC[C@H]1O[C@@H](n2cc(F)c(=O)[nH]c2=O)C[C@@H]1O` [5′-O-valyl-Floxuridine] the “% of Control (VACV)” value [4] was 91.1%, the “Uptake (hPepT1)” value (HPEPT1 [5]) was 3.42 ± 0.09 nmole/mg/45 min and the hPepT1/Control (HPEPT1 [5]) was 19.24. It also gave an IC50 (HPEPT1 [6]) of 1170 µM.
With `NC(Cc1ccccc1)C(=O)O[C@H]1C[C@H](n2cc(F)c(=O)[nH]c2=O)O[C@@H]1CO` (some centres unmarked) [3′-O-phenylalanyl-Floxuridine] the “% of Control (VACV)” value [4] was 24.4%, the “Uptake (hPepT1)” value (HPEPT1 [5]) was 0.83 ± 0.19 nmole/mg/45 min and the hPepT1/Control (HPEPT1 [5]) was 2.56. For the same compound, the IC50 (HPEPT1 [6]) was 3480 µM.
`C[C@H](N)C(=O)NCC(=O)OC[C@H]1O[C@@H](n2cnc3c(N)ncnc32)[C@@H](O)[C@@H]1O` [5′-O-L-alagly Ara A] gave a hPepT1/Control [1] of 1.48.

From patent US20070167353A1, “PRODRUG COMPOSITION” (priority 2003, published 2007)
